Measurements reported in patent US12139481B2, “Compositions comprising macrocycle derivatives incorporating bridged macrocycles and methods of producing and using same” (Southwestern Oklahoma State University, priority 2015, dated 2024).
Values joined by “and” are separate entries in the source; they are usually repeats but may differ in a detail not shown here. Equal values may be shown once. Read-outs that look alike come from different tables or passages of the source.

Key:
[1] = system: L. donovani promastigotes; experiment: Antileishmanial Alamar Blue assay on promastigotes; type: cell-based, Leishmania donovani; conditions: for X more potent than Pentamidine: L. donovani, ratio of molar IC50 to Pentamidine
Summary of the method: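 Alamar Blue fluorescence (544/590 nm) quantified growth after 48 hours at 26° C of compound-treated promastigotes. Parasites were seeded at 5×10^5/mL in RPMI 1640 plus 10% FCS; drug range 50-3.1 μg/mL, and IC50 derived by plotting percent growth against test concentration.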

[2] = system: S. mansoni newly transformed schistosomula (NTS); experiment: In vitro testing on Schistosoma mansoni newly transformed schistosomula (NTS), viability score; type: cell-based; conditions: NTS S. mansoni, 33 μM, 72 h
Summary of the method: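 Mechanically transformed S. mansoni (Liberian strain) NTS, cultured overnight, exposed at 100 per well to compound (from 10 mM DMSO stock; ≤1% DMSO controls) at 37 °C, 5% CO2 for 72 h. Viability scored microscopically from 3 (normal activity, intact tegument) to 0 (dead, granulated).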

[3] = system: Plasmodium falciparum D6 clone (Sierra Leon, chloroquine-sensitive); experiment: In vitro antimalarial assay, chloroquine-sensitive D6 clone; type: cell-based; conditions: D6 clone; for IC50: converted with molecular weight, read-out: P. falciparum D6 IC50; for X more potent than chloroquine: molar IC50 ratio versus chloroquine
Summary of the method: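 Parasites grown in type A human RBCs; assay run on infected cell suspension at 2% parasitemia and 2% hematocrit, in duplicate at several concentrations. IC50 taken from dose curves, per the Makler method, with DMSO as vehicle; Vero cytotoxicity run in parallel to derive a selectivity index.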

C. krusei ATCC 6258 = experiment: Antifungal broth dilution assay against C. krusei (modified CLSI); type: cell-based, Candida krusei; conditions: for X more potent than Amphotericin B: C. krusei, ratio of molar IC50 to amphotericin B; for C. krusei IC50 / IC50: in vitro; for IC50: read-out: C. krusei IC50 (mol/L)
Summary of the method: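 Growth read by optical density at 530 nm, duplicate wells, 1% final DMSO. Staphylococcus spp.: Mueller-Hinton pH 7.3, 5.0×10^5 CFU/ml, 35 °C for 16-20 h; Candida spp.: RPMI/dextrose/glutamine/MOPS pH 6.0, 1.5×10^3 CFU/ml, 35 °C for 46-50 h. Reported values are 50% inhibition versus controls, no-growth MIC, and killing MFC/MBC.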

[4] = promastigotes, 48 hours, Alamar Blue
[5] = promastigotes, 48 hours, Alamar Blue, read-out: L. donavani IC50

Row | SMILES | X more potent than Pentamidine [1] | L. donovani IC50 [1, 4] [µg/mL] | IC50 ([1]; promastigotes, 48 hours, Alamar Blue, HCl salt, read-out: L. donavani IC50) [µM] | Effect at 72 h (%) [2] [%] | P. falciparum D6 IC50 [3] [µg/mL] | IC50 [3] [µM] | X more potent than chloroquine [3] | IC50 [1, 5] [µM] | X more potent than Amphotericin B (C. krusei ATCC 6258) | C. krusei IC50 (C. krusei ATCC 6258) [µg/mL] | IC50 (C. krusei ATCC 6258) [µM] | IC50 ([1]; read-out: IC50 against L. donovani) [µM]
1 | CN1CCCN2CCN(CCCN(Cc3cccc(CN4CCCN5CCN(C)CCCN(CC5)CC4)c3)CC2)CC1.Cl.Cl.Cl.Cl.Cl.Cl.Cl.Cl [TJS04, m-CB-cyclams HCl salt] | 0.50 | 10.37 | 10.7 | 24.32 | 0.7450 | 0.852 | 0.04 |  |  |  |  | 
2 | c1cc(CN2CCCN3CCCN(CCCNCC3)CC2)ccc1CN1CCCN2CCCN(CCCNCC2)CC1 [SLK10, p-H2PBCyclams] | 0.20 | 15.50 |  |  | 0.8657 | 1.49 | 0.02 | 26.6 |  |  |  | 
3 | CC(=O)[O-].F[P-](F)(F)(F)(F)F.[Ni+2].c1ccc(CN2CCCN3CCCN(CCCN(Cc4ccccc4)CC3)CC2)cc1 [DJD22, [Ni(Bn2PBCyclam)(OAc)]PF6] | 0.28 | 13.10 |  |  | 0.7074 | 1.03 | 0.04 | 19.2 | 0.19 | 5.250 | 7.68 | 
4 | [Cl][Mn-2]([Cl])([Cl])[Cl].[Mn+2].c1ccc(CN2CCCN3CCCN(CCCN(Cc4ccccc4)CC3)CC2)cc1 [BME08, [Mn(Bn2PBCyclam)][MnCl4]] | 2 and 2.01 | 1.78 |  |  | 0.0967 | 0.144 | 0.25 | 2.65 | 0.19 | 5.270 | 7.84 | 2.65
5 | c1ccc(CN2CCN3CCCN(CC2)CCN(Cc2ccccc2)CC3)cc1 [AW009, Bn2PBCyclen] | 0.10 | 21.40 |  |  | 1.0770 | 2.74 | 0.01 | 54.5 | 0.10 | 6.170 | 15.7 | 
